Tests used:
[1] = biological target: T1, bovine mitochondrial complex I (CxI-ND) (Bos taurus, UniProt P03887+P03898+P17694+P42026); test: cryo-EM structure, […] Å; settings: oxidised resting enzyme in nanodiscs, active state; Q-binding channel between NDUFS2, NDUFS7 and ND1; pH 7.5
T1 construct: gene NDUFS2; native 45-subunit complex (14 core, 31 supernumerary); NDUFS2 residue 129 modelled as Arg, NDUFA10 residue 255 as Lys; human subunit nomenclature; with NADH dehydrogenase [ubiquinone] flavoprotein 1, mitochondrial; NADH dehydrogenase [ubiquinone] flavoprotein 2, mitochondrial; NADH-ubiquinone oxidoreductase 75 kDa subunit, mitochondrial; NADH dehydrogenase [ubiquinone] iron-sulfur protein 3, mitochondrial; NADH dehydrogenase [ubiquinone] iron-sulfur protein 8, mitochondrial; NADH-ubiquinone oxidoreductase chain 2; NADH-ubiquinone oxidoreductase chain 3; NADH-ubiquinone oxidoreductase chain 4; NADH-ubiquinone oxidoreductase chain 4L; NADH-ubiquinone oxidoreductase chain 5; NADH-ubiquinone oxidoreductase chain 6

[2] = biological target: T1, bovine mitochondrial complex I (CxI-ND); test: NADH:dQ oxidoreductase activity, […]-380 nm; format: biochemical; settings: DDM-solubilised enzyme; 200 µM dQ, 200 µM NADH, 0.15% asolectin/CHAPS; pH 7.5, 32 °C; piericidin-sensitive rate

Row | Structure (SMILES) | cryo-EM structure, 2.84 Å [1] | NADH:dQ oxidoreductase activity, 340-380 nm [2]
1 | COC1=C(OC)C(=O)C(C/C=C(\C)CC/C=C(\C)CC/C=C(\C)CC/C=C(\C)CC/C=C(\C)CC/C=C(\C)CC/C=C(\C)CC/C=C(\C)CC/C=C(\C)CCC=C(C)C)=C(C)C1=O [Q10, ubiquinone-10] | In active-Q10, the Q10 density occupies the entirety of the channel | –
2 | CCCCCCCCCCC1=C(C)C(=O)C(OC)=C(OC)C1=O [dQ, decylubiquinone] | – | piericidin-sensitive NADH:dQ oxidoreductase activity of the DDM-solubilised enzyme before reconstitution
